ChEMBL document CHEMBL1132914, “4-[(8-Alkyl-8-azabicyclo[3.2.1]octyl-3-yl)-3-arylanilino]-N,N-diethylbenzamides: high affinity, selective ligands for the delta opioid receptor illustrate factors important to antagonist activity” (Bioorg Med Chem Lett, 2000)

Tests used:
Cavia porcellus [1] = organism: Cavia porcellus; assay: Percent stimulation of [35S]GTP-gamma-S, binding by the compound (10 uM) in guinea pig caudate membranes for unblocked condition; format: functional
Cavia porcellus [2] = organism: Cavia porcellus; assay: Percent stimulation of [35S]GTP-gamma-S, binding by the compound in guinea pig caudate membranes for unblocked condition; format: functional, organism-based

Structure (SMILES)	Stimulation (Cavia porcellus [1]) [%]	Stimulation (Cavia porcellus [2]) [%]
C=CCN1[C@@H]2CC[C@H]1C[C@@H](N(c1ccc(C(=O)N(CC)CC)cc1)c1cccc(OC)c1)C2	46	
C/C=C\CN1C2CCC1CC(N(c1ccc(C(=O)N(CC)CC)cc1)c1cccc(OC)c1)C2 (stereo not given)	37	
C=CCN1C[C@H](C)N([C@H](c2ccc(C(=O)N(CC)CC)cc2)c2cccc(OC)c2)C[C@H]1C		102
C=CCN1[C@@H]2CC[C@H]1C[C@@H](N(c1ccc(C(=O)N(CC)CC)cc1)c1cccc(O)c1)C2	79	
CCN(CC)C(=O)c1ccc(N(c2cccc(OC)c2)[C@H]2C[C@H]3CC[C@@H](C2)N3CC=C(C)C)cc1	29	
